# In patent US20030215523A1, “Medicinal compositions for concomitant use as anticancer agent” (priority 2000, published 2003):
# Counter-ions that a name gives are not always drawn. Like-named read-outs stand apart in the source and are kept apart here.
# Assays:
# [1] = tested on: Human colon cancer strain Colo320D.M.; assay: Combined use of E7070 and 5-FU in human colon cancer Colo320D.M. xenograft model; conditions: for Toxicity Dead/Treated: Colo320D.M. xenograft, nude mice, E7070 30 mg/kg/day QDx5, 5-FU 60 mg/kg/day Q4Dx3
# Text: (§1) J Natl Cancer Inst. Jun. 5, 1996;88(11):747-53; (iii) Effects of growth hormone and testosterone on cortical bone formation and bone density in aged orchiectomized rats. Bone. 1999 May;24(5):491-7).
# [2] = tested on: Human non-small cell lung cancer LU-99; conditions: for Tx4 (days) mean ± S.D.: time in days for tumor size to attain 4 folds of initial tumor size: LU-99 s.c. in nude mice, E7070 25 mg/kg/day i.v. QDx5, CDDP 7.5 mg/kg/day i.v. single dose, + simultaneous (E7070 day 1-5, CDDP day 1), E7070 → CDDP (day 6), CDDP (day 1) → E7070 (day 2-6)
# Text: as §1
# [3] = tested on: Human colon cancer strain HCT15; conditions: for Tx4 (days) mean ± S.D.: time in days for tumor size to attain 4 folds of initial tumor size: HCT15 s.c. in nude mice, E7070 30 mg/kg/day i.v. QDx5 (day 1-5), CPT-11 75 mg/kg/day i.v. Q4Dx3 (day 1, 5, 9); for Toxicity Dead/Treated: HCT15 xenograft, nude mice, E7070 30 mg/kg/day QDx5, CPT-11 75 mg/kg/day Q4Dx3
# Text: as §1
# [4] = tested on: Human colon cancer strain SW620; assay: Combined use of E7070 and CPT-11 in human colon cancer SW620 xenograft model; conditions: for Tx4 (days) mean ± S.D.: time in days for tumor size to attain 4 folds of initial tumor size: SW620 s.c. in nude mice, E7070 25 mg/kg/day i.v. QDx5, CPT-11 62.5 mg/kg/day i.v. Q4Dx3, + simultaneous (E7070 day 1-5, CPT-11 day 1, 5, 9), E7070 → CPT-11 (day 6, 10, 14), CPT-11 → E7070 (day 10-14); for Toxicity mRBW (minimum relative body weight) mean: parentheses: day when RBW was minimal
# Text: as §1
# E7070 alone was intravenously administered once per day for5 days (first to fifth days), while CPT-11 alone was intravenously administered 3 times (once every 4 days, that is, on the first, fifth and ninth days).
# [5] = tested on: Human colon cancer strain HCT15; assay: Combined use of E7070 and MMC in human colon cancer HCT15 xenograft model; conditions: for Tx4 (days) mean ± S.D.: time in days for tumor size to attain 4 folds of initial tumor size: HCT15 s.c. in nude mice, E7070 25 mg/kg/day i.v. QDx5 (day 1-5; combination row prints 30 mg/kg/day), MMC 4.19 mg/kg/day i.v. single dose (day 1); for Toxicity Dead/Treated: HCT15 xenograft, nude mice, E7070 QDx5, MMC 4.19 mg/kg/day QDx1
# Text: as §1
# Human breast cancer HBC4 = assay: Combined use of E7070 and capecitabine in human breast cancer HBC4 xenograft model; format: in vivo
# Text: as §1
# [6] = Further anticancer agents examined for synergistic effect in combined use with E7070; conditions: used in the compositions of the invention (with E7070); model and data not given
# [7] = SW620 xenograft, nude mice, E7070 25 mg/kg/day QDx5, CPT-11 62.5 mg/kg/day Q4Dx3
# [8] = LU-99 xenograft, nude mice, E7070 25 mg/kg/day QDx5, CDDP 7.5 mg/kg/day QDx1
# [9] = HBC4 xenograft, nude mice, E7070 30.625 mg/kg/day, capecitabine 1.3125 mmol/kg/day
compound,measurement,setting,value
"O=c1[nH]cc(F)c(=O)[nH]1 [5-FU, 5-fluoro-2,4-(1H,3H)-pyrimidinedione, reference compound]",Toxicity Dead/Treated,[1],0/6
"N.N.[Cl][Pt][Cl] [CDDP, cis-diamminedichloroplatinum, reference compound]",Tx4 (days) mean ± S.D.: time in days for tumor size to attain 4 folds of initial tumor size,[2],10.7 ± 0.5 days
"CCc1c2c(nc3ccc(OC(=O)N4CCC(N5CCCCC5)CC4)cc13)-c1cc3c(c(=O)n1C2)COC(=O)[C@]3(O)CC [CPT-11, [1,4′-Bipiperidine]-1′-carboxylic acid (S)-4,11-diethyl-3,4,12,14-tetrahydro-4-hydroxy-3,14-dioxo-1H-pyrano-[3′,4′:6,7]-indolizino[1,2-b]quinolin-9-yl ester Hydrochloride trihydrate, reference compound]",Tx4 (days) mean ± S.D.: time in days for tumor size to attain 4 folds of initial tumor size,[3],17.8 ± 1.0 days
same,Toxicity Dead/Treated,[3],0/6
same,Tx4 (days) mean ± S.D.: time in days for tumor size to attain 4 folds of initial tumor size,[4],48.7 ± 29.7 days
same,Toxicity Dead/Treated,[4]; [7],0/6
same,Toxicity mRBW (minimum relative body weight) mean,[4]; [7],0.99(8)
"NS(=O)(=O)c1ccc(S(=O)(=O)Nc2cccc3c(Cl)c[nH]c23)cc1 [E7070, N-(3-chloro-1H-indol-7-yl)-4-sulfamoylbenzenesulfonamide]",Tx4 (days) mean ± S.D.: time in days for tumor size to attain 4 folds of initial tumor size,[5],12.7 ± 2.2 days
same,Toxicity Dead/Treated,[5],0/6
same,Tx4 (days) mean ± S.D.: time in days for tumor size to attain 4 folds of initial tumor size,[2],18.2 ± 2.3 days
same,Toxicity Dead/Treated,[2]; [8],0/6
same,mRTV (minimum relative tumor volume) mean ± S.D.,[2]; [8],0.75 ± 0.16
same,Tx4 (days) mean ± S.D.: time in days for tumor size to attain 4 folds of initial tumor size,[3],18.7 ± 2.0 days
same,Toxicity Dead/Treated,[3],0/6
same,Tx4 (days) mean ± S.D.: time in days for tumor size to attain 4 folds of initial tumor size,"[1]; Colo320D.M. s.c. in nude mice, E7070 30 mg/kg/day i.v. QDx5, 5-FU 60 mg/kg/day i.v. Q4Dx3, + simultaneous (E7070 day 1-5, 5-FU day 1, 5, 9), E7070 → 5-FU (day 6, 10, 14), 5-FU → E7070 (day 10-14)",11.2 ± 1.9 days
same,Toxicity Dead/Treated,[1],0/6
same,Tx4 (days): time in days for tumor size to attain 4 folds of initial size,"Human breast cancer HBC4; HBC4 s.c. in nude mice, E7070 30.625 mg/kg/day (87.5% MTD) once per day for 5 days, capecitabine 1.3125 mmol/kg/day (87.5% MTD) once per day for 14 days, combination: E7070 day 1-5, capecitabine day 6-19",50.0 ± 8.1 days
same,"CR, complete response: incidence of tumor free mice",Human breast cancer HBC4; [9],0/6
same,"PR, partial response: incidence of tumor regression (more than 50% of tumor regression)",Human breast cancer HBC4; [9],6/6
same,mRTV (minimum relative tumor volume),Human breast cancer HBC4; [9],0.24 ± 0.07
same,T · C,"Human breast cancer HBC4; HBC4 xenograft, Tx4 of treated versus control, E7070 30.625 mg/kg/day, capecitabine 1.3125 mmol/kg/day",28.0 days
same,Tx4 (days) mean ± S.D.: time in days for tumor size to attain 4 folds of initial tumor size,[4],30.2 ± 6.1 days
same,Toxicity Dead/Treated,[4]; [7],0/6
same,Toxicity mRBW (minimum relative body weight) mean,[4]; [7],0.98(8)
same,mRTV (minimum relative tumor volume) mean ± S.D.,"[4]; SW620 xenograft, nude mice, E7070 25 mg/kg/day QDx5, CPT-11 62.5 mg/kg/day Q4Dx3, parentheses: day when RTV was minimal",0.76 ± 0.42(12)
"CO[C@@]12[C@H](COC(N)=O)C3=C(C(=O)C(C)=C(N)C3=O)N1C[C@@H]1N[C@@H]12 [MMC, [1aS-(1aα,8β,8aα,8bα)]-6-amino-8-[[(aminocarbonyl)oxy]methyl]1,1a,2,8,8a,8b-hexahydro-8a-methoxy-5-methylazirino[2′,3′:3,4]pyrrolo[1,2-a]indole-4,7-dione, reference compound]",Tx4 (days) mean ± S.D.: time in days for tumor size to attain 4 folds of initial tumor size,[5],16.2 ± 3.4 days
same,Toxicity Dead/Treated,[5],0/6
"COc1cccc2c1C(=O)c1c(O)c3c(c(O)c1C2=O)C[C@@](O)(C(=O)CO)C[C@@H]3O[C@H]1C[C@H](N)[C@H](O)[C@H](C)O1 [doxorubicin, 10-[(3-amino-2,3,6-trideoxy-α-L-1yxo-hexopyranosyl)oxy]-7,8,9,10-tetrahydro-6,8,11-trihydroxy-8-(hydroxyacetyl)-1-methoxy-(8S-cis)-5,12-naphthacenedione]",Antitumor activity when examined for synergistic effect (in words),[6],excellent antitumor activity
"Nc1ccn([C@@H]2O[C@H](CO)[C@@H](O)C2(F)F)c(=O)n1 [gemcitabine hydrochloride, 2′-deoxy-2′,2′-difluoro-cytidine hydrochloride]",Antitumor activity when examined for synergistic effect (in words),[6],excellent antitumor activity
